Test: Ring-closing metathesis (C=C formation) of fluorous-tagged (FDIPES) terminal dienes with Hoveyda-Grubbs 2nd generation catalyst (typically 2 mol%, 1-5 mol%), usually with 1,4-benzoquinone (4-10 mol%); quench P(CH2OH)3/Et3N/silica
Conditions: MTBE, 2.0 mM, 55.0 °C

With `CC(C)[Si](CCC(F)(F)C(F)(F)C(F)(F)C(F)(F)C(F)(F)C(F)(F)C(F)(F)C(F)(F)F)(OC[C@@H]1COCC=CCC[C@@H](O[Si](C)(C)C(C)(C)C)[C@H](C)CN(S(=O)(=O)C(F)(F)F)Cc2ccccc2CN1S(=O)(=O)c1ccccc1[N+](=O)[O-])C(C)C` [34 (16+11; E/Z >98:<2)] the ring closure, isolated yield (from C=CCC[C@@H](O[Si](C)(C)C(C)(C)C)[C@H](C)CN(Cc1ccccc1CN([C@@H](COCC=C)CO[Si](CCC(F)(F)C(F)(F)C(F)(F)C(F)(F)C(F)(F)C(F)(F)C(F)(F)C(F)(F)F)(C(C)C)C(C)C)S(=O)(=O)c1ccccc1[N+](=O)[O-])S(=O)(=O)C(F)(F)F, 17-membered ring, 16.0 h) was 61%.

Compound `CC(C)[Si](CCC(F)(F)C(F)(F)C(F)(F)C(F)(F)C(F)(F)C(F)(F)C(F)(F)C(F)(F)F)(OC[C@@H]1COCC=CCCN(S(=O)(=O)C(F)(F)F)Cc2ccccc2CN1S(=O)(=O)c1ccccc1[N+](=O)[O-])C(C)C` [35 (16+12; E/Z 70:30)] has a ring closure, isolated yield (from C=CCCN(Cc1ccccc1CN([C@@H](COCC=C)CO[Si](CCC(F)(F)C(F)(F)C(F)(F)C(F)(F)C(F)(F)C(F)(F)C(F)(F)C(F)(F)F)(C(C)C)C(C)C)S(=O)(=O)c1ccccc1[N+](=O)[O-])S(=O)(=O)C(F)(F)F, 14-membered ring, 36.0 h) of 98%.

In the case of `COc1ccc([C@H]2COCC=CCOC[C@H](CO[Si](CCC(F)(F)C(F)(F)C(F)(F)C(F)(F)C(F)(F)C(F)(F)C(F)(F)C(F)(F)F)(C(C)C)C(C)C)N(S(=O)(=O)c3ccccc3[N+](=O)[O-])Cc3cccc(c3)CN(S(=O)(=O)c3ccccc3[N+](=O)[O-])C(=O)OC2)c(OC)c1` [36 (17+9; E/Z 25:75)], the ring closure, isolated yield (from C=CCOC[C@@H](COC(=O)N(Cc1cccc(CN([C@H](COCC=C)CO[Si](CCC(F)(F)C(F)(F)C(F)(F)C(F)(F)C(F)(F)C(F)(F)C(F)(F)C(F)(F)F)(C(C)C)C(C)C)S(=O)(=O)c2ccccc2[N+](=O)[O-])c1)S(=O)(=O)c1ccccc1[N+](=O)[O-])c1ccc(OC)cc1OC, 20-membered ring, 24.0 h) was 76%.

`CC(C)[Si](CCC(F)(F)C(F)(F)C(F)(F)C(F)(F)C(F)(F)C(F)(F)C(F)(F)C(F)(F)F)(OC[C@H]1COCC=CCOc2ccccc2COC(=O)N(S(=O)(=O)c2ccccc2[N+](=O)[O-])Cc2cccc(c2)CN1S(=O)(=O)c1ccccc1[N+](=O)[O-])C(C)C` [37 (17+10; E/Z 70:30)] showed a ring closure, isolated yield (from C=CCOC[C@H](CO[Si](CCC(F)(F)C(F)(F)C(F)(F)C(F)(F)C(F)(F)C(F)(F)C(F)(F)C(F)(F)F)(C(C)C)C(C)C)N(Cc1cccc(CN(C(=O)OCc2ccccc2OCC=C)S(=O)(=O)c2ccccc2[N+](=O)[O-])c1)S(=O)(=O)c1ccccc1[N+](=O)[O-], 20-membered ring, 60.0 h) of 78%.

`CC(C)[Si](CCC(F)(F)C(F)(F)C(F)(F)C(F)(F)C(F)(F)C(F)(F)C(F)(F)C(F)(F)F)(OC[C@H]1COCC=CCCN(S(=O)(=O)C(F)(F)F)Cc2cccc(c2)CN1S(=O)(=O)c1ccccc1[N+](=O)[O-])C(C)C` [38 (17+12; E 55% + Z 15%)] showed a ring closure, isolated yield (from C=CCCN(Cc1cccc(CN([C@H](COCC=C)CO[Si](CCC(F)(F)C(F)(F)C(F)(F)C(F)(F)C(F)(F)C(F)(F)C(F)(F)C(F)(F)F)(C(C)C)C(C)C)S(=O)(=O)c2ccccc2[N+](=O)[O-])c1)S(=O)(=O)C(F)(F)F, 15-membered ring, 48.0 h) of 70%.

Reference: article PMC5488202
